Results from paper PMC11124822, “Discovery and Anticancer Screening of Novel Oxindole-Based Derivative Bearing Pyridyl Group as Potent and Selective Dual FLT3/CDK2 Kinase Inhibitor” (Pharmaceuticals, 2024).

Assays:
K-562 = experiment: NCI-60 antiproliferative screen (SRB); type: cell-based, human; details: Homo sapiens, K562; 10 µM single dose, 48 h; K-562 (Leukemia); read-out: Growth inhibition (%)
HOP-92 = experiment: NCI-60 antiproliferative screen (SRB); type: cell-based, human; details: Homo sapiens; 10 µM single dose, 48 h; HOP-92 (NSCLC); read-out: Growth inhibition (%)
SNB-75 = experiment: NCI-60 antiproliferative screen (SRB); details: Homo sapiens, SNB-75, 48 h, read-out: Growth inhibition (%)
MOLT-4 = experiment: NCI-60 antiproliferative screen (SRB); type: cell-based; details: Homo sapiens; 10 µM single dose, 48 h; MOLT-4 (Leukemia); read-out: Growth inhibition (%)
HL-60(TB) = experiment: NCI-60 antiproliferative screen (SRB); type: cell-based, human; details: Homo sapiens; 10 µM single dose, 48 h; HL-60(TB) (Leukemia); read-out: Growth inhibition (%)
PC-3 = experiment: NCI-60 antiproliferative screen (SRB); type: cell-based, human; details: Homo sapiens; 10 µM single dose, 48 h; PC-3 (Prostate); read-out: Growth inhibition (%)
T-47D = experiment: NCI-60 antiproliferative screen (SRB); type: cell-based, human; details: Homo sapiens, T47D; 10 µM single dose, 48 h; T-47D (Breast); read-out: Growth inhibition (%)
SK-MEL-2 = experiment: NCI-60 antiproliferative screen (SRB); type: cell-based, human; details: Homo sapiens; 10 µM single dose, 48 h; SK-MEL-2 (Melanoma); read-out: Growth inhibition (%)
SW-620 = experiment: NCI-60 antiproliferative screen (SRB); type: cell-based, human; details: Homo sapiens; 10 µM single dose, 48 h; SW-620 (Colon); read-out: Growth inhibition (%)
A498 = experiment: NCI-60 antiproliferative screen (SRB); type: cell-based, human; details: Homo sapiens; 10 µM single dose, 48 h; A498 (Renal); read-out: Growth inhibition (%)
RPMI-8226 = experiment: NCI-60 antiproliferative screen (SRB); type: cell-based, human; details: Homo sapiens; 10 µM single dose, 48 h; RPMI-8226 (Leukemia); read-out: Growth inhibition (%)
COLO 205 = experiment: NCI-60 antiproliferative screen (SRB); type: cell-based, human; details: Homo sapiens; 10 µM single dose, 48 h; COLO 205 (Colon); read-out: Growth inhibition (%)
MDA-MB-468 = experiment: NCI-60 antiproliferative screen (SRB); type: cell-based, human; details: Homo sapiens; 10 µM single dose, 48 h; MDA-MB-468 (Breast); read-out: Growth inhibition (%)
TK-10 = experiment: NCI-60 antiproliferative screen (SRB); type: cell-based, human; details: Homo sapiens; 10 µM single dose, 48 h; TK-10 (Renal); read-out: Growth inhibition (%)
U251 = experiment: NCI-60 antiproliferative screen (SRB); type: cell-based, human; details: Homo sapiens, U-251; 10 µM single dose, 48 h; U251 (CNS); read-out: Growth inhibition (%)
A549/ATCC = experiment: NCI-60 antiproliferative screen (SRB); type: cell-based, human; details: Homo sapiens; 10 µM single dose, 48 h; A549/ATCC (NSCLC); read-out: Growth inhibition (%)
RXF 393 = experiment: NCI-60 antiproliferative screen (SRB); type: cell-based, human; details: Homo sapiens; 10 µM single dose, 48 h; RXF 393 (Renal); read-out: Growth inhibition (%)
KM12 = experiment: NCI-60 antiproliferative screen (SRB); type: cell-based, human; details: Homo sapiens; 10 µM single dose, 48 h; KM12 (Colon); read-out: Growth inhibition (%)
MDA-MB-231 = experiment: NCI-60 antiproliferative screen (SRB); type: cell-based, human; details: Homo sapiens; 10 µM single dose, 48 h; MDA-MB-231 (Breast); read-out: Growth inhibition (%)
SR = experiment: NCI-60 antiproliferative screen (SRB); details: Homo sapiens, 48 h, read-out: Growth inhibition (%)
MCF7 = experiment: NCI-60 antiproliferative screen (SRB); type: cell-based, human; details: Homo sapiens; 10 µM single dose, 48 h; MCF7 (Breast); read-out: Growth inhibition (%)
HOP-62 = experiment: NCI-60 antiproliferative screen (SRB); type: cell-based, human; details: Homo sapiens; 10 µM single dose, 48 h; HOP-62 (NSCLC); read-out: Growth inhibition (%)
HT29 = experiment: NCI-60 antiproliferative screen (SRB); type: cell-based, human; details: Homo sapiens, HT-29; 10 µM single dose, 48 h; HT29 (Colon); read-out: Growth inhibition (%)
OVCAR-3 = experiment: NCI-60 antiproliferative screen (SRB); type: cell-based, human; details: Homo sapiens; 10 µM single dose, 48 h; OVCAR-3 (Ovarian); read-out: Growth inhibition (%)
SNB-19 = experiment: NCI-60 antiproliferative screen (SRB); type: cell-based, human; details: Homo sapiens; 10 µM single dose, 48 h; SNB-19 (CNS); read-out: Growth inhibition (%)
HCC-2998 = experiment: NCI-60 antiproliferative screen (SRB); type: cell-based, human; details: Homo sapiens; 10 µM single dose, 48 h; HCC-2998 (Colon); read-out: Growth inhibition (%)
SK-MEL-5 = experiment: NCI-60 antiproliferative screen (SRB); type: cell-based, human; details: Homo sapiens; 10 µM single dose, 48 h; SK-MEL-5 (Melanoma); read-out: Growth inhibition (%)

| SMILES | inhibition at 10 µM (K-562) | inhibition at 10 µM (HOP-92) | inhibition at 10 µM (SNB-75) | inhibition at 10 µM (MOLT-4) | inhibition at 10 µM (HL-60(TB)) | inhibition at 10 µM (PC-3) | inhibition at 10 µM (T-47D) | inhibition at 10 µM (SK-MEL-2) | inhibition at 10 µM (SW-620) | inhibition at 10 µM (A498) | inhibition at 10 µM (RPMI-8226) | inhibition at 10 µM (COLO 205) | inhibition at 10 µM (MDA-MB-468) | inhibition at 10 µM (TK-10) | inhibition at 10 µM (U251) | inhibition at 10 µM (A549/ATCC) | inhibition at 10 µM (RXF 393) | inhibition at 10 µM (KM12) | inhibition at 10 µM (MDA-MB-231) | inhibition at 10 µM (SR) | other results |
| --- | --- | --- | --- | --- | --- | --- | --- | --- | --- | --- | --- | --- | --- | --- | --- | --- | --- | --- | --- | --- | --- |
| O=C1Nc2ccccc2C1=Cc1ccc(OCc2cccnc2)cc1 (mixture of isomers) [Compound 5i, (E/Z)-3-[4-(Pyridin-3-ylmethoxy)benzylidene]indolin-2-one] | 75.9% | 35.4% | -1.11% | 70% | 49.9% | 29.8% | 51% | 24.1% | 19.9% | -17.8% | 45.4% | 26.1% | 51.2% | -15.7% | 53.2% | 26.2% | 24.9% | 87.4% | 35.4% | 72% | inhibition at 10 µM (MCF7): 58%; inhibition at 10 µM (HOP-62): 37.2%; inhibition at 10 µM (HT29): 32.7%; inhibition at 10 µM (OVCAR-3): -9.24%; inhibition at 10 µM (SNB-19): 37.1%; inhibition at 10 µM (HCC-2998): -2.08%; inhibition at 10 µM (SK-MEL-5): 59.4% |
| O=C1Nc2ccc(F)cc2C1=Cc1ccc(OCc2cccnc2)cc1 (mixture of isomers) [Compound 5j, (E/Z)-5-Fluoro-3-[4-(pyridin-3-ylmethoxy)benzylidene]indolin-2-one] | 86.1% | 25.8% | -5.67% | 88.5% | 81.7% | 43.6% | 66.7% | 50.4% | 70.1% | -29.1% | 61.2% | 46.1% | 58.5% | -1.92% | 83.7% | 39.4% | 37.3% | 97.3% | 42% | 73% | inhibition at 10 µM (MCF7): 91%; inhibition at 10 µM (HOP-62): 45.4%; inhibition at 10 µM (HT29): 84.1%; inhibition at 10 µM (OVCAR-3): 9.05%; melting point: 187 to 189 °C; inhibition at 10 µM (SNB-19): 62.1%; inhibition at 10 µM (HCC-2998): 23.4%; inhibition at 10 µM (SK-MEL-5): 113% |
| O=C1Nc2ccc(Cl)cc2C1=Cc1ccc(OCc2cccnc2)cc1 (mixture of isomers) [Compound 5k, (E/Z)-5-Chloro-3-[4-(pyridin-3-ylmethoxy)benzylidene] indolin-2-one] | 38.8% | -1.4% | -10.2% | 52.6% | 14.8% | 24.3% | 23.2% | 0.36% | 2.62% | -31.6% | 29.7% | 5.66% | 12.5% | -37.8% | 27.3% | 16.1% | 6.84% | 52.8% | 9.08% | 66.1% | inhibition at 10 µM (MCF7): 55.5%; inhibition at 10 µM (HOP-62): 0.56%; inhibition at 10 µM (HT29): 18.1%; inhibition at 10 µM (OVCAR-3): -10.9%; melting point: 199 to 201 °C; inhibition at 10 µM (SNB-19): 22.9%; inhibition at 10 µM (HCC-2998): -9.21%; inhibition at 10 µM (SK-MEL-5): 11.4% |
